Data as given in US20120270844A1, “METHODS FOR TREATING ALZHEIMER'S DISEASE” (aFRAXis, Inc., priority 2009, published 2012).

Test system: C57/black 6 mice temporal cortex slices
Assay: Slice electrophysiology assay (LTP, theta-burst stimulation)
Format: cell-based
Details: 1 μM compound; temporal cortex slices of C57/black 6 mice
Procedure: coronal cortical slices (400 μm) containing temporal cortex from 2- to 3-month-old C57-Black-6 mice male littermates (from Elevage Janvier, FRANCE) are prepared and allowed to recover in oxygenated (95% O2 and 5% CO2) warm (30° C.) artificial cerebrospinal fluid (ACSF) containing 124 mM NaCl, 5 mM KCl, 1.25 mM, NaH2PO4, 1 mM MgCl2, 2 mM CaCl2, 26 mM NaHCO3, and 10 mM dextrose.
a 10 mM DMSO stock solution is prepared for each test compound and 100 μL aliquots are stored at −20° C. On the day of experiment an aliquot is thawed and vortexed for fresh solutions preparation. The final concentration of DMSO is adjusted to 0.1% all solutions, including control ACSF solution. […]
a stimulus is applied every 30 s with an intensity settled at 40% of the maximal amplitude responses. […] Potentiation of synaptic transmission is then monitored for an additional 40 minutes period. […]
following a 10 minutes control recording period (to verify baseline stability), the compound is perfused for 20 minutes. Then, LTP is triggered and the fEPSP amplitude will be recorded for an additional 40 minutes period in the presence of compound.
fEPSP amplitudes are measured as the difference between the baseline (before stimulation) and the maximal peak amplitude. The fEPSP are normalized as a percent of the mean averaged amplitude recorded over a 10 min control period, before compound application. […]

CN1CCN(c2ccc(Nc3ncc4ccc(=O)n(C5CCCC5)c4n3)cc2)CC1 [Compound G, 8-cyclopentyl-2-(4-(4-methylpiperazin-1-yl)phenylamino)pyrido[2,3-d]pyrimidin-7(8H)-one]
LTP compared to the baseline in a theta-burst stimulation protocol in the cortex: increased LTP
